From patent publication US20240352396A1, “PE[…]-C[…] CULTURE INCUBATOR” (Northeastern University, priority 2023, published 2024)

Tests used:
MCF7 cultures = settings: MCF7 in 24-well plate, 5% O2 incubator, 5 mM sodium azide; rose from 3% O2 to the incubator setpoint; PBS-spiked cultures returned to 3% O2
Description: (§1) MCF7 were seeded overnight in a 24-well plate and incubated at 5% O2 for 24 hours. […] Cells were incubated with 1:1000 live/dead dye (LIVE/DEAD Fixable Kit, Thermo Fisher Scientific) for 1 hour. Flow cytometry (Attune NxT, Thermo Fisher Scientific) of live singlets was used to determine the cell viability.

MCF7 = settings: 5 mM NaN3, 6 hours, 5% O2
Description: as §1

## [N-]=[N+]=[N-] [sodium azide]
MCF7 cultures
  pericellular O2 tension: 5 % O2
MCF7
  MCF7 cell viability: no significant change
